Here are results for 5 compounds from patent US20240336638A1, “IMIDAZOLE COMPOUND, AND INTERMEDIATE AND APPLICATION THEREOF” (priority 2021, published 2024).

Assay [1] has as its system MCAO/R rats. The assay can be described thus: Therapeutic administration (i.v.) in middle cerebral artery occlusion/reperfusion (MCAO/R) rats. The assay is classed as in vivo, rat. To be noted: for Bleeding time / Brain water content (%) / Cerebral infarction rate (%) / Clotting time / Neurological function score: once a day for 3 days, mean ± SD, n = 8; for Neurological function score: modified Bederson score. As for the experimental part:
Male SD rats weighing 250 to 300 g were taken, and the rats in each group fasted for 12 hours before modeling, while water was not restricted. According to the method of Longa et al.^[1], a rat model of MCAO/R was established by occluding the blood flow of internal carotid artery using the thread embolization method. The rats were anesthetized with 3% chloral hydrate (300 mg/kg, 1 mL/100 g body weight) through intraperitoneal injection and fixed in the supine position on the operating table. A midline incision was made in the neck, and the right common carotid artery was isolated using forceps and threaded for later use. The external and internal carotid arteries were isolated from the bifurcation of the common carotid artery. A single thread was threaded through the internal carotid artery, and two threads were threaded through the external carotid artery. Both distal and proximal ends were ligated, and the middle part of the ligation site was cut using ophthalmic scissors. The proximal main trunk of the external carotid artery was isolated and reserved for later use. The prepared cotton thread was used to half-ligate the common carotid artery (tying a slipknot), and the thread prepared for the internal carotid artery was tightened with hemostatic forceps, temporarily occluding the blood flow of the internal carotid artery. A small incision at the proximal main trunk of the external carotid artery was made using ophthalmic scissors, and then, the fishing line was held with straight forceps, inserted from this incision, and slowly advanced through the isolated proximal main trunk of the external carotid artery towards the intracranial direction of the internal carotid artery. The advancement was stopped at a predetermined position, and then the thread of the internal carotid artery that was tightened with the hemostatic forceps was loosened. […] Another thread was threaded and tightened around the proximal main trunk of the external carotid artery and the fishing line that had already been inserted into the predetermined position. The half-ligated thread on the common carotid artery was then loosened, and the skin was subsequently sutured. After 2 hours of ischemia, a small section of the fishing line was pulled out. […] After rats in the blank control group were anesthetized, only the bifurcation of the internal and external carotid arteries was exposed without the occlusion of the MCA.
Successfully modeled rats (neurological function score of 3 after reperfusion) were taken and divided into 20 groups (8 rats for each) according to the random number table method. The groups were divided into a model control group, three dose groups (high, 12 mg/kg, 2.4 mg/mL; medium, 6 mg/kg, 1.2 mg/mL; low, 3 mg/kg, 0.6 mg/mL) for each of the six test compounds, and a positive drug Ozagrel group (6 mg/kg, 1.2 mg/mL), respectively. Both blank and model control groups were administered equal volumes of mixed solvents, and the rats in each group were administered by tail vein injection (i.v.) 2 hours after reperfusion, once a day for 3 consecutive days, with a volume of 0.5 mL/100 g body weight.
Ten minutes after the last administration, the neurological function of the animals was graded according to the modified Bederson scoring method. The standard is as follows[2]: • 0 point: no neurological symptoms; • 1 point: when the rat is suspended by lifting its tail, the forelimb on the surgical side of the rat was flexed and pressed against the chest wall; • 2 points: on a smooth plane, when the rat is pushed from the surgical side to the opposite side, the resistance is less than when it is moved to the same side; • 3 points: the animal moves around or in circles when moving freely; • 4 points: flaccid paralysis, no spontaneous movement of limbs.
After Bederson scoring, the rats were executed by cervical dislocation, and the whole brain was removed and weighed. After weighing, the whole brain was placed in a −20° C. refrigerator for 20 minutes. […]

The subject of assay [2] is AA-induced platelet aggregation. The assay can be described thus: Inhibitory effect on AA-induced platelet aggregation in rats in vitro (washed platelets). The assay is classed as cell-based, rat. To be noted: 1*10^−4 M. As for the experimental part:
Several experimental groups were established, including a blank control group, an AA (arachidonic acid) model control group, and various test compounds. Each test compound had three concentration groups: 10^−3 M, 10^−4 M, and 10^−5 M. The data from the blank and model control group were shared among the different drug concentration groups as a control.
Male SD rats were anesthetized with 3% chloral hydrate (300 mg/kg) through intraperitoneal injection. After being fixed in a supine position, the skin of the neck was cut about 3 cm, bluntly separated with a hemostat, and the trachea was exposed after the common carotid artery was separated. The distal end of the common carotid artery was ligated with a fine thread, and the proximal end was clamped with an arterial clamp for vascular intubation. After the intubation was fixed, the artery clamp was opened, and the blood was placed into a blood collection tube containing 3.8% trisodium citrate so that the blood was mixed well with the 3.8% trisodium citrate in a volume ratio of 9:1.
The prepared anticoagulant blood was mixed well and centrifuged for 10 minutes at 500 rpm, then the upper layer of plasma was aspirated to obtain platelet-rich plasma (PRP), and the PRP was centrifuged again for 5 minutes at 3,000 rpm. The supernatant was discarded, and the platelet precipitate was obtained, which was washed once with Ca^2+-free HEPES-Tyrode's buffer, then centrifuged at 3,000 rpm for 5 minutes. The supernatant was discarded, and the platelets were resuspended with Ca^2+-free HEPES-Tyrode's buffer to obtain the washed platelets.
First, 300 μL of Ca^2+-containing HEPES-Tyrode's solution was taken into the test cup, put into the test wells, and calibrated by pressing the “PPP” key. Subsequently, 240 μL of the washed platelets were added to the test cup, then added with 30 μL of different concentrations of drug solution, incubated for 10 minutes at 37° C. in a preheated bath, and then put into the test wells. 3 μL of 100× CaCl2 solution (final concentration of 0.2 g/L) and 30 μL of inducer (final concentration of AA of 800 μM) were added to the test wells, and then the “Start” key was pressed immediately. The maximum aggregation rate was recorded every 60 s. The measurement was repeated three times for each concentration for 10 minutes, and the aggregation curve was plotted.
The platelet aggregation inhibition rate was calculated with the following formula:
Inhibition rate (%)=(maximum aggregation rate in the model control group−maximum aggregation rate in the administration group)/maximum aggregation rate in the model control group×100%
All data were expressed as mean±standard deviation (mean±SD). SPSS 22.0 software was used for statistical analysis of the data. Intergroup data were analyzed using one-way ANOVA, with P<0.05 considered as statistically significant and P<0.01 considered as highly significant.

[3] abbreviates: medium dose 6 mg/kg i.v. (Ozagrel group 6 mg/kg).

SMILES strings stand for the structures.

For the compound `O=C(O)/C=C/c1ccc(Cn2ccnc2)cc1` [Ozagrel, reference compound], in assay [1] (setting [3]), the “Bleeding time” value came to 300.00 ± 26.93 s, the “Brain water content (%)” value was 79.73 ± 2.02%, the “Cerebral infarction rate (%)” value is listed as 21.70% and the “Clotting time” value came out at 154.50 ± 16.91 s. In addition, the Neurological function score in assay [1] (setting [3]) worked out at 1.50 ± 0.93.

On to `O=C(O)[C@@H]1C[C@H]1c1ccc(Cn2ccnc2)c(F)c1` [Compound 15, (1R,2R)-2-(4-((1H-Imidazol-1-yl)methyl)-3-fluorophenyl)cyclopropane-1-carboxylic acid], for which the “significant inhibition of AA-induced platelet aggregation” value (shortened to “significant inhibition”) in assay [2] is “can significantly inhibit”. Also, in assay [1] (high dose 12 mg/kg i.v.), the “Bleeding time” value turned out to be 289.63 ± 60.00 s, the “Brain water content (%)” value was 80.84 ± 1.40%, the “Cerebral infarction rate (%)” value was 15.57% and the “Clotting time” value amounted to 163.13 ± 20.06 s. The compound also displayed a Neurological function score in assay [1] (high dose 12 mg/kg i.v.) of 1.50 ± 0.53. Further, in assay [1] (low dose 3 mg/kg i.v.), the “Bleeding time” value turned out to be 281.38 ± 61.33 s, the “Brain water content (%)” value was found to be 81.71 ± 1.64%, the “Cerebral infarction rate (%)” value is listed as 29.98 ± 5.52% and the “Clotting time” value came out at 155.38 ± 41.85 s. In assay [1] (low dose 3 mg/kg i.v.), this compound registered a Neurological function score of 2.38 ± 0.74. In assay [1] (setting [3]), the “Bleeding time” value is 304.88 ± 43.01 s, the “Brain water content (%)” value is recorded as 81.19 ± 1.32%, the “Cerebral infarction rate (%)” value came out at 21.57% and the “Clotting time” value came to 156.50 ± 31.15 s. In assay [1] (setting [3]), the Neurological function score is 1.75 ± 0.71.

On to `O=C(O)[C@@H]1C[C@H]1c1ccc(Cn2cnc(Cl)c2)c(Cl)c1` [Compound 11, (1R,2R)-2-(3-Chloro-4-((4-chloro-1H-imidazol-1-yl)methyl)phenyl)cyclopropane-1-carboxylic acid], for which the “significant inhibition” value in assay [2] is “can significantly inhibit”. Further, the “neurological deficits in rats” value in assay [1] (high dose) was “can significantly reduce”. For the same compound, in assay [1] (high dose 12 mg/kg i.v.), the “Bleeding time” value came to 319.25 ± 49.38 s, the “Brain water content (%)” value is reported as 80.58 ± 0.77%, the “Cerebral infarction rate (%)” value turned out to be 13.53% and the “Clotting time” value amounted to 152.81 ± 29.69 s. Moreover, the Neurological function score in assay [1] (high dose 12 mg/kg i.v.) turned out to be 1.25 ± 0.46. The “improving the neurological function scores of the rats” value in assay [1] (high dose, comparison among test drugs) is listed as “more advantageous”. In assay [1] (high doses, comparison among test drugs), the “reducing the infarct area (smallest mean infarct rate)” value is given as “more advantageous”. Also, the “cerebral edema in rats” value in assay [1] (low dose) is listed as “did not significantly improve”. Further, in assay [1] (low dose 3 mg/kg i.v.), the “Bleeding time” value was 307.63 ± 64.59 s, the “Brain water content (%)” value worked out at 82.04 ± 1.91 %, the “Cerebral infarction rate (%)” value stood at 28.07 ± 4.88% and the “Clotting time” value turned out to be 138.38 ± 27.34 s. The Neurological function score in assay [1] (low dose 3 mg/kg i.v.) came to 2.25 ± 0.46. In addition, in assay [1] (setting [3]), the “Bleeding time” value is 279.75 ± 37.97 s, the “Brain water content (%)” value was found to be 80.33 ± 1.65%, the “Cerebral infarction rate (%)” value is 19.96% and the “Clotting time” value came to 136.63 ± 9.80 s. The same compound yielded a Neurological function score in assay [1] (setting [3]) of 2.00 ± 0.53.

Take `O=C(O)[C@@H]1C[C@H]1c1ccc(Cn2cnc(F)c2)cc1F` [Compound 17, (1R,2R)-2-(2-Fluoro-4-((4-fluoro-1H-imidazol-1-yl)methyl)phenyl)cyclopropane-1-carboxylic acid]: the “significant inhibition” value in assay [2] is on record as “can significantly inhibit”. For the same compound, in assay [1] (high dose 12 mg/kg i.v.), the “Bleeding time” value was 338.38 s, the “Brain water content (%)” value stood at 80.34 ± 1.65%, the “Cerebral infarction rate (%)” value is listed as 17.37% and the “Clotting time” value was 163.00 ± 29.03 s. The same compound gave a Neurological function score in assay [1] (high dose 12 mg/kg i.v.) of 1.63 ± 0.74. The “cerebral edema in rats” value in assay [1] (low and medium doses) is “did not significantly improve”. Further, in assay [1] (low dose 3 mg/kg i.v.), the “Bleeding time” value stood at 290.75 ± 79.23 s, the “Brain water content (%)” value was 82.47 ± 3.03 %, the “Cerebral infarction rate (%)” value is 30.61 ± 5.72% and the “Clotting time” value is 141.25 ± 28.04 s. This compound had a Neurological function score in assay [1] (low dose 3 mg/kg i.v.) of 2.25 ± 0.71. Moreover, in assay [1] (setting [3]), the “Bleeding time” value is on record as 307.50 ± 64.66 s, the “Brain water content (%)” value was found to be 81.96 ± 2.16 %, the “Cerebral infarction rate (%)” value was 22.75% and the “Clotting time” value is 155.00 ± 29.81 s. In assay [1] (setting [3]), this compound returned a Neurological function score of 1.88 ± 0.83.

With `O=C(O)[C@@H]1C[C@H]1c1ccc(Cn2cnc(F)c2)c(Cl)c1` [Compound 18, (1R,2R)-2-(3-Chloro-4-((4-fluoro-1H-imidazol-1-yl)methyl)phenyl)cyclopropane-1-carboxylic acid], in assay [2], the “significant inhibition” value is reported as “can significantly inhibit”. Besides, in assay [1] (high dose 12 mg/kg i.v.), the “Bleeding time” value is given as 330.25 ± 50.14 s, the “Brain water content (%)” value was 80.54 ± 1.62%, the “Cerebral infarction rate (%)” value is listed as 17.78% and the “Clotting time” value was 147.25 ± 13.30 s. In assay [1] (high dose 12 mg/kg i.v.), the Neurological function score is on record as 1.63 ± 0.52. In assay [1] (low dose 3 mg/kg i.v.), the “Bleeding time” value is on record as 267.38 ± 50.19 s, the “Brain water content (%)” value worked out at 80.64 ± 2.21%, the “Cerebral infarction rate (%)” value is 26.58 ± 4.57% and the “Clotting time” value is recorded as 152.38 ± 28.67 s. Besides, the Neurological function score in assay [1] (low dose 3 mg/kg i.v.) is on record as 2.25 ± 0.46. Moreover, in assay [1] (setting [3]), the “Bleeding time” value is listed as 271.63 ± 40.55 s, the “Brain water content (%)” value turned out to be 80.95 ± 1.79%, the “Cerebral infarction rate (%)” value was 20.75% and the “Clotting time” value worked out at 158.19 ± 19.62 s. For the same compound, in assay [1] (setting [3]), the Neurological function score turned out to be 1.88 ± 0.83.
